The values that follow come from patent US11845770B2, “Ascaroside derivatives and methods of use” (California Institute of Technology, priority 2019, dated 2023).

As usually defined, the half-life is the time in which the quantity being followed falls by half. A higher half-life goes with slow decline. For orientation: inhibition means the percentage by which the read-out fell short of the control.

What all share (assay type): in vitro ADME
Data set [1] can be described thus: Stability in hepatocytes (rat). The following applies: cryopreserved rat hepatocytes (suspension). As for the experimental part: 10 mM of 1 was provided as a 1000× stock solution in dimethylsulfoxide (DMSO), and the stock solution was diluted to 1 mM with DMSO in 96-well plates. 30 mM of positive compounds (7-ethoxycoumarin and 7-hydroxycoumarin) were provided as a 1000× stock solution in DMSO, and the stock solution was diluted to 3 mM with DMSO in 96-well plates. 20 μL of 1000× stock solution of each compound were pipetted and was mixed with 380 μL of 45% MeOH/H2O to obtain 50 μM of 1 and 150 μM of the positive control compound solutions to form 50× intermediate solutions. 20 μL of 50× intermediate solution of each compound were pipetted and was mixed with […] of pre-warmed incubation medium to obtain 5 μM of 1 and 15 μM of the positive control compound solutions to form 5× working solutions. The incubation medium was Williams' Medium E (no phenol red) containing 2 mM L-glutamine and 25 mM HEPES. 10 μL of 5× working solutions of each compound were pipetted into appropriate wells in a 96-well plate for time points of 0 minutes, 15 minutes, 30 minutes, 60 minutes, and 90 minutes in duplicates. The plates with compounds were kept warm in an incubator at 37° C.
A cell suspension was prepared by thawing cryopreserved cells, isolating the cells, and suspending the cells in thawing medium. […]
The remaining percentage of 1 after incubation was calculated according to the following equation. […]

Data set [2] has as its system Caco-2 cells. The data set is described as follows: Bidirectional permeability in Caco-2 cells. To be noted: 2 μM, 2 hours. As for the experimental part:
Caco-2 cells purchased from ATCC were seeded onto […] (PET) in 96-well BD Insert plates at 1×10^5 cells/cm^2, and the medium was refreshed every 4˜5 days until to the 21st to 28th day for formation of a confluent cell monolayer.
The transport buffer in the study was Hank's balanced salt solution (HBSS) with 10 mM HEPES at pH 7.40±0.05. Compound 1 was tested at 2 μM bi-directionally in duplicate. Digoxin was tested at 10 μM bi-directionally in duplicate, while nadolol and metoprolol were tested at 2 μM in A to B direction in duplicate. Final DMSO concentration was adjusted to less than 1%. […] Concentrations of compound 1 and […] in starting solution, donor solution, and receiver solution were quantified by LC/MS/MS methodologies, using peak area ratio of analyte/internal standard. […]
The apparent permeability coefficient Papp (cm/s) was calculated using the equation: Papp=(dCr/dt)×Vr/(A×C0) where dCr/dt is the cumulative concentration of compound in the receiver chamber as a function of time (μM/s); Vr is the solution volume in the receiver chamber (0.075 mL on the apical side, 0.25 mL on the basolateral side); A is the surface area for the transport, i.e. 0.0804 cm^2 for the area of the monolayer; Co is the initial concentration in the donor chamber (μM).
The efflux ratio was calculated using the equation: Efflux Ratio=Papp(BA)/Papp(AB) […]
Background: Caco-2 monolayers are a common model of the intestinal barrier.

Data set [3] addresses T1, CYP1A2 (Homo sapiens, UniProt P05177).
T1 construct: from tissue
T1 sequence (P05177 1-516): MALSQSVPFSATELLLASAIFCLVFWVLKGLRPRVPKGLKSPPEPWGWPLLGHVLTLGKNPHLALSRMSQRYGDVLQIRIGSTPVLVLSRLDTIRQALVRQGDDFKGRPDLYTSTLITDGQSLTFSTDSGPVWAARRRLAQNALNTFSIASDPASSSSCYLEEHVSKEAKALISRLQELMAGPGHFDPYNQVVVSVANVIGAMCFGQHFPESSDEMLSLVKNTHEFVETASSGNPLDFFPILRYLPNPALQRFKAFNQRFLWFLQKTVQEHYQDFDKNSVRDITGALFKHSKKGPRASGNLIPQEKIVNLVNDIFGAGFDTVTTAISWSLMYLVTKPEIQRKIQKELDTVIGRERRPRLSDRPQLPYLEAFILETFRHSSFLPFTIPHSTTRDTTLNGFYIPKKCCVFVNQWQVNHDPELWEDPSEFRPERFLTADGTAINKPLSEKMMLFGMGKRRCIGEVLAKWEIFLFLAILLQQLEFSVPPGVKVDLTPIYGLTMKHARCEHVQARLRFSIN
The data set is described as follows: 5 in 1 CYP inhibition assay, CYP1A2. The following applies: microsomes, probe phenacetin (O-deethylation), test compound 10 μM, n=2, read-out: inhibition of cytochrome P450 isoform 1A2. As for the experimental part: CYP450 dependent activities were determined using a marker substrate cocktail. For each reaction, enzyme activities in the presence and absence of test compound (10 μM) were measured in duplicate. A known inhibitor for each isoform, tested at a single concentration (3 μM, n=2), was included as positive control. Incubation mixtures containing microsomes, substrate, and standard inhibitor or test compound were warmed at 37° C. for 10 minutes. Reactions were initiated by addition of the NADPH and incubated for 10 min. [table] After incubation, ice cold acetonitrile was added to terminate the reaction. Generation of metabolites from the substrate reactions was determined by LC-MS/MS.

Turning to `C[C@H](CC/C=C/C(=O)OC(C)(C)C)O[C@@H]1O[C@@H](C)[C@H](O)C[C@H]1O` [Compound 1, tert-butyl (2E,6R)-6-{[(2R,3R,5R,6S)-3,5-dihydroxy-6-methyloxan-2-yl]oxy}hept-2-enoate], the half-life at 1 µM in data set [1] was 23.1 min. The bidirectional permeability result in data set [2] is on record as “high bidirectional permeability”. Further, the inhibition at 10 min, 10 µM in data set [3] was determined as 10.9%.
Taken in the same sequence, the figures for `C[C@H](CC/C=C/C(=O)O)O[C@@H]1O[C@@H](C)[C@H](O)C[C@H]1O` [ascr #7, reference compound] were above 217 min, “low bidirectional permeability” and 2.3%.
